From PMC5531531, “A synthetic cationic antimicrobial peptide inhibits inflammatory response and the NLRP3 inflammasome by neutralizing LPS and ATP” (PLoS ONE, 2017)
No end group written: not given here.

What was measured:
[1] = tested on: C57BL/6 mice injected with E. coli LPS; type: in vivo, mouse
Protocol: (§1) The expression levels of IL-1β, IL-6 and TNF-α in the conditional medium, sera and lavage fluids were measured by ELISA as described in detail previously.
(§2) The protein expression levels of iNOS, COX-2, ERK1/2, JNK1/2, p38, IκB-α, PKC, caspase-1 and the phosphorylation levels of ERK1/2, JNK1/2, p38, PKC-α, PKC-δ, IκB-α were determined by Western blotting as described in detail previously.
Experiments were performed on 8-week-old male C57BL/6 mice purchased from the National Laboratory Animal Center (Taipei, Taiwan). The mice were randomized into the following four groups: Group I: control, intraperitoneal injection of 100 μl of sterile PBS, n = 3; Group II: LPS, intraperitoneal injection of 100 μl of sterile PBS containing E. coli LPS (10 mg/kg), n = 5; Group III: GW-A2+LPS, intraperitoneal injection of 100 μl of sterile PBS containing E. coli LPS (10 mg/kg) and GW-A2 (10 mg/kg), n = 5. Group IV: AMP, intraperitoneal injection of 100 μl of sterile PBS containing GW-A2 (10 mg/kg), n = 3. Sera were collected for analysis at 4 h after LPS injection. Peritoneal lavages, lungs and livers were collected for analysis at 24 h after LPS injection.
Lungs, livers and kidney were fixed in 10% formalin and paraffin-embedded, then 4 um thick sections were cut and stained with hematoxylin and eosin was described in detail previously. Scoring of the polymorphonuclear neutrophils (PMN) infiltration was determined by counting in 5 randomly sampled fields by light microscopy at a magnification of x400 evaluated by a pathologist in National Defense Medical Center (Taipei, Taiwan).

[2] = tested on: cell surface of paraformaldehyde-fixed RAW 264.7 cells; experiment: Flow cytometry, binding to the cell surface; type: cell-based, mouse; settings: fixed RAW 264.7, GW-A2 30 min then 2 μg/ml LPS-FITC 30 min, 4°C; Fig 6A
Protocol: For binding of GW-A2 to the cell surface, RAW 264.7 cells were fixed for 15 min with 2% paraformaldehyde and then incubated for 30 min with 20 μM of GW-A2-FITC at 4°C. After washing, cells were subjected to flow cytometric analysis on a FACSCalibur using CellQuest Software (Becton Dickinson Inc., San Jose, CA, USA). To assess binding of LPS to the cell surface, RAW 264.7 cells were fixed for 15 min with 2% paraformaldehyde and then incubated for 30 min with GW-A2. This was followed by incubation for 30 min with 2 μg/ml of LPS-FITC (F3665, Sigma) at 4°C. After washing, the cells were subjected to flow cytometric analysis.

[3] = tested on: E. coli-LPS-activated RAW 264.7 macrophages; experiment: TNF-α and IL-6 secretion ELISA, RAW 264.7; type: cell-based, mouse; settings: RAW 264.7, E. coli LPS 0.1 μg/ml 24 h, Fig 1E
Protocol: as §1
Fig 1 Effects of GW-A2 on the expression levels of inflammatory mediators. (A) RAW 264.7 macrophages were incubated for 30 min with or without GW-A2 or scrambled GW-A2, followed by incubation with or without 0.1 μg/ml of E. coli LPS or Salmonella LPS for 24 h. The levels of NO in the culture medium were measured by the Griess reaction. (B) RAW 264.7 macrophages were incubated for 30 min with or without GW-A2, followed by incubation with or without peptidoglycan (20 μg/ml), Pam3CSK4 (0.2 μg/ml) or capsular polysaccharide (3 μg/ml) for 24 h. The levels of NO in the culture medium were measured by the Griess reaction. […] The levels of iNOS and COX-2 were assessed by Western blotting and the histograms represent the expression levels compared to the LPS alone group obtained in three different experiments. […] The mRNA levels of iNOS and COX-2 were assessed by quantitative real-time PCR. […] The cell proliferation was measured by AlamarBlue® assay. The data are expressed as the mean ± SD of three independent experiments. *, ** and *** indicate significant differences, representing p < 0.05, p < 0.01 and p < 0.001, respectively compared to stimulation alone. # indicates significant differences, representing p < 0.05 compared to 2 μM of GW-A2 group.

[4] = tested on: iNOS and COX-2 in E. coli-LPS-activated RAW 264.7 macrophages; experiment: iNOS and COX-2 expression (Western blot, quantitative real-time PCR); type: cell-based, mouse
Protocol: as §2
RAW 264.7 (2 × 10^6 in 2 ml of medium) were seeded in 6-cm dishes and then treated with or without LPS (0.1 μg/ml) in the absence or presence of AMP for 6 h. Total RNA was extracted from the treated cells by TRIzol reagent (Gibco, Grand Island, NY, USA) and the cDNA was prepared as described in detail previously. The mRNA expression levels of iNOS and COX-2 were measured by quantitative real-time PCR using the StepOne real-time PCR system (Applied Biosystems, Foster City, CA, USA). The primers used were: for mouse iNOS, forward 5- […]-3 and reverse 5-TGAACGAGGAGGGTGGTG-3; for mouse COX-2, forward 5-[…]-3 and reverse 5-[…]-3. The gene expression data are presented as the relative expression (LPS group as 100%) normalized to that of glyceraldehyde-3-phosphate dehydrogenase (GAPDH).

[5] = tested on: THP-1 macrophages; type: cell-based, human
Protocol: RAW 264.7 cells or THP-1 macrophages (5 × 10^3 in 0.1 ml of medium) were seeded in 96-well plates and then incubated with various doses of AMP for 24 h. An AlamarBlue® assay (AbD Serotec, Oxford, UK) was used to determine the cytotoxicity of the test AMP. The procedure was conducted following the protocol described in the manufacturer’s instructions.

[6] = i.p. E. coli LPS 10 mg/kg with GW-A2 10 mg/kg, n = 5, sera 4 h after LPS, ELISA, Fig 5A
[7] = Western blot, E. coli LPS 0.1 μg/ml 24 h, Fig 1C
[8] = quantitative real-time PCR, E. coli LPS 0.1 μg/ml 6 h, Fig 1D

Sequence: GAKYAKIIYNYLKKIANALW [GW-A2]
- IL-1β level in the sera [1, 6]: significantly reduced
- IL-6 level in the sera [1, 6]: significantly reduced
- TNF-α level in the sera [1, 6]: significantly reduced
- Infiltration of PMN into the lung and liver ([1]; i.p. LPS 10 mg/kg with GW-A2 10 mg/kg, 24 h, H&E, 5 fields x400, Fig 5D, 5E): reduced
- Expression levels of iNOS, COX-2 and NLRP3 in the lung and liver ([1]; i.p. LPS 10 mg/kg with GW-A2 10 mg/kg, tissues 24 h after LPS, Western blot, Fig 5C): reduced
- Adverse effects in GW-A2-injected mice ([1]; mouse, in vivo, ip, 10 mg/kg): no adverse effects were observed
- Behaviors of GW-A2-injected mice versus control mice ([1]; mouse, in vivo, ip, 10 mg/kg): not significantly different
- Competition with LPS-FITC for cell surface binding [2]: did not compete
- LPS-FITC binding to the cell surface in presence of GW-A2 [2]: increase in LPS-FITC binding to the cell surface
- IL-6 secretion level [3]: reduced
- TNF-α secretion level [3]: reduced
- COX-2 protein expression level [4, 7]: inhibited
- iNOS protein expression level [4, 7]: inhibited
- Inhibitory activity on COX-2 protein expression, 4 μM compared to 2 μM ([4]; Western blot, 4 μM of GW-A2 compared to 2 μM): lower inhibitory activity
- COX-2 mRNA expression level [4, 8]: inhibited
- iNOS mRNA expression level [4, 8]: inhibited
- Viability of THP-1 macrophages [5]: did not reduce
